This is an account of results in patent US11306078B2, “Piperidine CXCR7 receptor modulators” (IDORSIA PHARMACEUTICALS LTD., priority 2016, dated 2022).

Molecules are shown by their SMILES.

Broadly, the IC50 is the point on the concentration scale where inhibition reaches its midpoint. A low value points to greater potency.

For this test, the target named is human chemokine receptor CXCR7 (Homo sapiens (Human), UniProt P25106). Nature of the test: Tango CXCR7-bla U2OS beta-arrestin recruitment assay (beta-lactamase reporter, FRET), antagonism of CXCL12/SDF1-α.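 Further: compounds preincubated 15 min before CXCL12 addition, then 22 h at 37 °C, FRET emission ratio read with CCF4-AM substrate after 2 h.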 It is filed as cell-based. The settings on record: antagonistic effect on CXCR7; Tango CXCR7-bla U2OS cells, CXCL12/SDF1-α at its EC80.
Chain of human chemokine receptor CXCR7 (P25106 whole entry): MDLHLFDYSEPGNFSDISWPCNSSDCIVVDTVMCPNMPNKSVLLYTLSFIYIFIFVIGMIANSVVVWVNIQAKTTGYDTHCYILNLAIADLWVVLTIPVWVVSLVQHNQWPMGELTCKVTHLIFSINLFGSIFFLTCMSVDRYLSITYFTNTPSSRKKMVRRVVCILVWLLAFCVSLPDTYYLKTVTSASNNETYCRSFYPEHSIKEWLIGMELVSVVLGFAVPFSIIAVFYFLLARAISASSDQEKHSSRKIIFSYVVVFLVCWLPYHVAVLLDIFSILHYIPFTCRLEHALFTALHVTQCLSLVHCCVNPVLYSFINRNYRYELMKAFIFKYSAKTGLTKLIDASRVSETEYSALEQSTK
`CN(C)C(=O)[C@@H]1CN(C2CCCC(C)(C)C2)CC[C@H]1NC(=O)c1cc(-c2ccc(F)cc2F)on1` (some centres unmarked) [Example 2.024] came in with an IC50 of 101 nM. Take `O=C(N[C@@H]1CCN(C2CCCCC2)C[C@H]1C(=O)N1CC(F)(F)C1)c1cc(-c2ccc(F)cc2F)on1` (racemic) [Example 1.052, rac-5-(2,4-Difluoro-phenyl)-isoxazole-3-carboxylic acid [(3R*,4R*)-1-cyclohexyl-3-(3,3-difluoro-azetidine-1-carbonyl)-piperidin-4-yl]-amide]: it took 630 nM to reach half-maximal inhibition (IC50). In the case of `Cc1cc(C)nc(C2(NC(=O)[C@H]3CN(C4CCCC4)CC[C@@H]3NC(=O)c3cc(-c4ccc(F)cc4F)on3)CC2)n1` [Example 1.184, (3S,4S)-1-Cyclopentyl-4-{[5-(2,4-difluoro-phenyl)-isoxazole-3-carbonyl]-amino}-piperidine-3-carboxylic acid [1-(4,6-dimethyl-pyrimidin-2-yl)-cyclopropyl]-amide], the concentration for half-maximal inhibition (IC50) came to 3 nM. Then `CC(C)CNC(=O)[C@@H]1CN(C2CCCCC2)CC[C@H]1NC(=O)c1cc(-c2ccc(F)cc2F)on1` (racemic) [Example 1.007, rac-(3R*,4R*)-1-Cyclohexyl-4-{[5-(2,4-difluoro-phenyl)-isoxazole-3-carbonyl]-amino}-piperidine-3-carboxylic acid isobutyl-amide], with 780 nM; and `CC(NC(=O)[C@@H]1CN(C(C)C)CC[C@H]1NC(=O)c1cc(-c2ccc(F)cc2F)on1)c1ccccn1` (some centres unmarked) [Example 2.007], with 88 nM; and `CN(C)C(=O)[C@@H]1CN(C2CCCCC2)CC[C@H]1NC(=O)c1ncc(-c2ccc(F)cc2F)o1` (racemic) [Example 3.018, rac-(3R*,4R*)-1-Cyclohexyl-4-{[5-(2,4-difluoro-phenyl)-oxazole-2-carbonyl]-amino}-piperidine-3-carboxylic acid dimethylamide], with 198 nM. In the case of `O=C(N[C@@H]1CCN(CC2CC2)C[C@H]1C(=O)NC1(c2ccccn2)CC1)c1cc(-c2ccc(F)cc2F)no1` (racemic) [Example 1.174, rac-(3R*,4R*)-1-Cyclopropylmethyl-4-{[3-(2,4-difluoro-phenyl)-isoxazole-5-carbonyl]-amino}-piperidine-3-carboxylic acid (1-pyridin-2-yl-cyclopropyl)-amide], inhibition was half-maximal at 36 nM (IC50). Next, `C[C@@H]1CCC[C@H]1N1CC[C@@H](NC(=O)c2cc(-c3c(F)cc(F)cc3F)on2)[C@H](C(=O)N[C@H](C)c2cnccn2)C1` (relative stereo) [Example 1.132, (3R*,4R*)-1-((1RS,2RS)-2-Methyl-cyclopentyl)-4-{[5-(2,4,6-trifluoro-phenyl)-isoxazole-3-carbonyl]-amino}-piperidine-3-carboxylic acid ((R)-1-pyrazin-2-yl-ethyl)-amide]: 410 nM; `C[C@@H]1CCC[C@H]1N1CC[C@@H](NC(=O)c2cc(-c3ccc(F)cc3F)no2)[C@H](C(=O)N(C)C)C1` [Example 1.15]: 155 nM; `O=C(N[C@@H]1CCN(CC2CC2)C[C@H]1C(=O)NC1(c2ncccn2)CC1)c1cc(-c2ccccc2C(F)(F)F)on1` [Example 1.19]: 294 nM. Regarding `O=C(N[C@H]1CCN(CC2CC2)C[C@@H]1C(=O)N1CCCC1c1ncccn1)c1cc(-c2ccc(F)cc2F)on1` (some centres unmarked) [Example 4.078b], the IC50 came to 15 nM. For `C[C@H]([C@@H](C)O)N1CC[C@@H](NC(=O)c2cc(-c3ccc(F)cc3F)on2)[C@H](C(=O)N[C@H](C)c2ccccn2)C1` [Example 2.054], inhibition was half-maximal at 138 nM (IC50). Next, `O=C(N[C@H]1CCN(CC2CC2)C[C@@H]1C(=O)NC1(c2ccccc2O)CC1)c1cc(-c2ccc(F)cc2F)on1` [Example 4.076]: 97 nM; `CCOCCN(C)C(=O)[C@@H]1CN(C2CCCCC2)CC[C@H]1NC(=O)c1cc(-c2ccc(F)cc2F)on1` (racemic) [Example 1.019, rac-(3R*,4R*)-1-Cyclohexyl-4-{[5-(2,4-difluoro-phenyl)-isoxazole-3-carbonyl]-amino}-piperidine-3-carboxylic acid (2-ethoxy-ethyl)-methyl-amide]: 145 nM.
